Holding throughout (assay): growth of human tumour cells (NCI), 48 h
Test [1] relates to OVCAR-3.
For test [2], the system named is UO-31.
Test [3] concerns OVCAR-8.
Test [4] relates to HCT-15.
Test [5] has as its system COLO 205.
The test system of test [6] is 786-0.
Test [7] deals with UACC-257.
The subject of test [8] is SNB-75.
Test [9] concerns A498.
In test [10] the test system is SN12C.
Test [11] deals with SK-MEL-5.
For test [12], the system named is KM-20L2.
Test [13] relates to U-251.
Test [14] concerns NCI-H522.
In test [15] the test system is NCI-H460.
Test [16] concerns OVCAR-5.
For test [17], the system named is HOP-62.
The subject of test [18] is HCC 2998.

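Dose response: 5 concentrations. Exposure: 48 h. Format: 96-well plates. Endpoint: linear interpolation; highest concentration if not reached. Abbreviation: GI50, concentration required for 50% inhibition of growth.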 Active and inactive are the calls of the source. Rule as the data show it: active = GI50 up to about 1.1 µM and inactive = higher. Bounds are passed on as bounds.

Take `O=C1c2ccccc2C(=O)N1CCCOCc1cnc(O)nc1O`: the GI50 was > 100 µM (inactive) in test [1]; > 100 µM (inactive) in test [2]; > 100 µM (inactive) in test [3]; greater than 100 µM in [4]; > 100 µM (inactive) in test [5]; > 100 µM (inactive) in test [6]. Further, the GI50 in [7], in test [8], in test [9], in [10], in [11] and in test [12] was > 100 µM (inactive) each time. Further, the GI50 in test [13], in test [14], in test [15], in test [16] and in [17] was > 100 µM (inactive) throughout.

As for `CC1=NN(c2ccccc2)C(=O)C1/N=N/c1ccc(Br)c(C)c1` (centres undefined), the GI50 in test [1] is > 100 µM (inactive); in test [3], > 100 µM (inactive); in test [4], greater than 100 µM; in test [5], > 100 µM (inactive); in test [6] it was > 100 µM (inactive); in test [7], > 100 µM (inactive). For the same molecule, the GI50 in test [8], in test [9], in [10], in [18], in [11] and in [12] was > 100 µM (inactive) each time. Further, the GI50 in test [13], in test [15], in test [16] and in [17] was > 100 µM (inactive) throughout.

For the molecule `COC(=O)C(C(=O)OC)C1CCCC(=O)C1` (centres undefined), the GI50 in test [1] is > 100 µM (inactive); in test [2], > 100 µM (inactive); in test [3], > 100 µM (inactive); in [4], greater than 100 µM; in test [5] it was > 100 µM (inactive); in test [6], > 100 µM (inactive). Further, the GI50 in test [7], in test [8], in [9], in test [10], in [18] and in [11] was > 100 µM (inactive) each time. Moreover, the GI50 in test [12], in [13], in test [15], in test [16] and in [17] was > 100 µM (inactive) throughout.

With `CC(C)(C)C1CCC2c3c([nH]c4ncccc34)C3C(=O)N(c4ccccc4)C(=O)C3C2C1` (centres undefined), the GI50 was > 100 µM (inactive) in test [1]; > 100 µM (inactive) in test [2]; 99.3 µM (inactive) in test [3]; greater than 100 µM in test [4]; > 100 µM (inactive) in test [5]; > 100 µM (inactive) in [6]. The GI50 was > 100 µM (inactive) in [7]; 24.6 µM (inactive) in [8]; 88.1 µM (inactive) in test [10]; > 100 µM (inactive) in test [18]; > 100 µM (inactive) in [11]; > 100 µM (inactive) in test [12]. Further, the GI50 is > 100 µM (inactive) in [13]; 89.3 µM (inactive) in test [14]; > 100 µM (inactive) in [15]; > 100 µM (inactive) in test [16]; > 100 µM (inactive) in test [17].

In the case of `COC(=O)c1cc(-c2ccc(OC)c(OC)c2)oc1-c1ccc(OC)c(OC)c1`, the GI50 in test [1] was 42.5 µM (inactive); in test [2], 35.6 µM (inactive); in test [3], 44.6 µM (inactive); in test [4], 47.2 µM; in test [5] it was 19.5 µM (inactive); in test [6], 37.3 µM (inactive). For the same molecule, the GI50 is 37.6 µM (inactive) in test [7]; 33.5 µM (inactive) in [8]; 18.7 µM (inactive) in [9]; 26.8 µM (inactive) in [10]; 81.8 µM (inactive) in [18]; > 10 µM (inactive) in [11]. The GI50 in [12] was 53.3 µM (inactive); in test [13], 30.6 µM (inactive); in test [15], 48.5 µM (inactive); in test [16], 36.1 µM (inactive); in test [17] it was 35.7 µM (inactive).

The values above are taken from ChEMBL document CHEMBL1201862, “PubChem BioAssay data set” (2004).
